Measured values from patent US20140235630A1, “COMPOSITIONS AND METHODS FOR THE TREATMENT OF PROLIFERATIVE DISEASES” (Beth Israel Deaconess Medical Center, Inc., priority 2011, published 2014).
Where “and” joins values, the source holds several entries; their conditions need not be identical. Equal entries are not always repeated.

How the values were obtained:
[1] = system: BRCA1-deleted mammary tumors of MMTV-CreBRCA1^f/fp53+/− mice; assay: 18FDG PET-CT scanning of tumor-bearing mice; format: in vivo, mouse; conditions: for FDG-uptake of treated tumors: Compound B-treated versus Compound A or combination
Procedure: (§1) All animal experiments were conducted in accordance with IACUC-approved protocols at Beth Israel Deaconess Medical Center, Boston, and at the University of Vall d'Hebron, Barcelona, Spain. Female MMTV-CreBRCA1^f/fp53+/− mice were obtained by breeding BRCA1 conditional knockout mice from the NIH repository (01XC8, strain C57BL/6) (Xu et al. Nat. Genet., 22: 37-43, 1999); with MMTV-Cre (Jackson Laboratory B6129-TgN(MMTV-Cre)4Mam) (Wagner et al. Nucleic Acids Res., 25: 4323-4330, 1997) and p53 knockout (Taconic Farms, P53N12-M, C57BL/6) (Donehower et al. Nature, 356: 215-221, 1992). At the time of the study, mice had been inbred for 4 years (>7 generations). The floxed or wild type status of Brca1, the presence of the MMTV-Cre transgene and the p53 heterozygosity were determined by PCR. Mice were examined for the occurrence of tumors twice weekly. When tumormetrics were performed, the length and width of the tumor was determined using calipers, and the tumor volume was determined (width^2×length/2). Tumor volume was used as a measure of growth and was recorded as ratio to tumor volume at diagnosis. Tumor doubling times were calculated using the functions of the best fit curves for all data points in each treatment modality. 5-(2,6-dimorpholinopyrimidin-4-yl)-4-(trifluoromethyl)pyridin-2-amine (Compound A) was resuspended in 5% Methylcellulose solution (Fluka) and administered via oral gavage at 50 mg/kg/day or 30 mg/kg/day. 4-[[3-[4-(cyclopropanecarbonyl)piperazine-1-carbonyl]-4-fluorophenyl]methyl]-2H-phthalazin-1-one (Compound B) was resuspended for intraperitoneal administration as described (Rottenberg et al. Proc. Natl. Acad. Sci. USA., 105: 17079-17084, 2008) and dosed at 50 mg/kg/day. For patient-derived tumor grafts consent for tumor use was obtained from patients under a protocol approved by the Vall d'Hebron Hospital Clinical Investigation Ethical Committee. Tumors were subcutaneously implanted in 6-week-old female HsdCpb:NMRI-Foxn1nu mice (Harlan Laboratories, Italy) Animals were supplemented with 1 μM estradiol (Sigma) in the drinking water. After tumor graft growth, tumor tissue was re-implanted into recipient mice, which were randomized upon implant growth.
0.3 to 0.4 mCi of fluorine-18-deoxyglucose were injected intravenously through the retroorbital vein of the anesthetized mouse. After a “washout” period of 1 hour the mouse was imaged on a NanoPET/CT (Bioscan/Mediso) scanner. The NanoPET/CT is a high-resolution small-animal multimodality scanner consisting of 12 lutetium yttrium oxyorthosilicate (LYSO) detector blocks. The blocks comprise a total of 39,780 crystals each with a dimension of 1.2×1.2×13 mm^3.
Images were acquired in three dimensions. The mice remained supine and maintained their position throughout the procedure. First, a CT scan was performed and second, a whole-body ^18F-FDG PET emission scan was acquired covering the same area as the CT scan. Counts per minute (cpm) were obtained, converted to mCi, and values were normalized for ROI volume and injected dose. In order to correct for metabolic variability between exams and to determine tumor-specific uptake changes, FDG-uptake rates were corrected for cardiac FDG-uptake (μCi injected/voxels^tumor)/(μCi/μCi injected/voxels^heart). For studies involving repeat scanning, the change in tumor-specific FDG-uptake was determined in percent (1−(FDG-uptake^post/FDG-uptake^pre)×100) Animals were housed in the Longwood SAIF satellite animal facility between scans.

[2] = system: tumor microvasculature (CD31) of MMTV-CreBRCA1^f/fp53+/− tumors; assay: Tumor vascularization: gross pathology, anti-CD31 stain, Chalkley count; format: in vivo, mouse
Procedure: as §1, with “MMTV-CreBRCA1^f/fp53+/− mice” left out, “At the time of the study, mice had been inbred for 4 years (>7 generations).” left out, “Tumor doubling times were calculated using the functions of the best fit curves for all data points in each treatment modality. 5-(2,6-dimorpholinopyrimidin-4-yl)-4-(trifluoromethyl)pyridin-2-amine (Compound A) was resuspended in 5% Methylcellulose solution (Fluka) and administered via oral gavage at 50 mg/kg/day or 30 mg/kg/day. 4-[[3-[4-(cyclopropanecarbonyl)piperazine-1-carbonyl]-4-fluorophenyl]methyl]-2H-phthalazin-1-one (Compound B) was resuspended for intraperitoneal administration as described (Rottenberg et al.” left out, “growth. For immunohistochemistry we used anti-cleaved caspase 3 (CC3) (9661S, Cell Signalling, Rabbit polyclonal Asp175), anti-Ki67 (9106-S; Thermo Scientific, Rabbit monoclonal SP6). All other antibodies used are described in the immunoblotting section below. All immunohistochemistries were done as described previously (Burga et al. Breast Cancer Res., 13:[…], 2011) including antigen retrieval with a citrate-buffer. […]” for “growth.”

[3] = after 2 weeks of continued treatment
[4] = within 48 hours of instituting treatment

| SMILES | FDG-uptake of treated tumors [1] | median decrease in FDG-uptake [1, 3] [%] | range of decrease in FDG-uptake [1, 3] | decrease in 18FDG-uptake, individual tumors of one mouse ([1]; within 48 hours after start, 50 mg/kg/day by gavage, four simultaneous tumors, 50 mg/kg/day) | median decrease in FDG-uptake [1, 4] [%] | range of decrease in FDG-uptake [1, 4] | gross pathology of tumors ([2]; 50 mg/kg/day via gavage, 2 and 6 weeks) | Chalkley count of CD31-positive microvessels: size and number of blood vessels ([2]; before versus after treatment) | tumor microvasculature, anti-CD31 stain ([2]; center of tumor treated for 6 weeks) |
| --- | --- | --- | --- | --- | --- | --- | --- | --- | --- |
| Nc1cc(C(F)(F)F)c(-c2cc(N3CCOCC3)nc(N3CCOCC3)n2)cn1 [Compound A, 5-(2,6-dimorpholinopyrimidin-4-yl)-4-(trifluoromethyl)pyridin-2-amine] | strongly reduced FDG-uptake | 54 | 45.5-70.5% | 45% and 64% (2×) and 56% | 46.7 | 38.1-92.3 | central pallor and, eventually, central necrosis | starkly reduced | diminished |
| O=C(c1cc(Cc2n[nH]c(=O)c3ccccc23)ccc1F)N1CCN(C(=O)C2CC2)CC1 [Compound B, 4-[[3-[4-(cyclopropanecarbonyl)piperazine-1-carbonyl]-4-fluorophenyl]methyl]-2H-phthalazin-1-one, reference compound] | increased FDG-uptake | – | – | – | – | – | – | – | – |
